According to patent US20080249043A1, “Methods and Compositions Involving Protein Kinase C-Delta” (priority 2004, published 2008):

Test system: mitochondria from HeLa cells
Experiment: tBid-binding capacity of mitochondria isolated from HeLa cells (FITC-tBid(G94E))
Format: cell-based
Conditions: 5 μM AD198 4 h, versus DMSO-treated control cells
Experimental: (a) Increased tBid-binding capacity by AD198. Mitochondria were isolated from HeLa cells treated with 5 μM AD198 or DMSO as control for 4 h. Mitochondria (50 μg by protein) were incubated with 0, 10, 20, 60 and 100 ng/μl FITC-tBid(G94E) in total volume 50 μl for […] followed by washing to remove unbounded probes. The fluorescent intensity was quantified with Bio-Tek microplate reader. Error bars indicate standard deviations of three independent experiments. (b) Dose response with mitochondria. Various amounts of mitochondria in (a) were incubated with 10 ng/μl tBid(G94E)-FITC as in (a). The fluorescent intensity of the washed mitochondria was quantified with Bio-Tek microplate reader. (c) Expression of PLS3 or PLS3(T21D) in selected HeLa cells. […] The tBid-binding capacity of the mitochondria from each cells were analyzed as in (a). […] Mitochondria were isolated from cells in (c) and analyzed as in (b).
Analysis of the tBid-binding capacity of mitochondria—Isolated mitochondria were incubated with FITC-tBid(G94E) in 50 μl reaction buffer (250 mM sucrose, 20 mM HEPES, 10 mM KCl, 3 mM KH2PO4, 1.5 mM MgCl2, 1 mM EGTA, 0.5% mg/ml BSA, PH 7.4) for 30 min at room temperature. Mitochondria were pelleted at 10,000×g and washed extensively with the reaction buffer to remove unbound FITC-tBid(G94E) and the fluorescence intensity was quantified with Bio-Tek microplate reader.

## CCCCC(=O)OCC(=O)[C@]1(O)Cc2c(O)c3c(c(O)c2[C@@H](O[C@H]2C[C@H](NCc4ccccc4)[C@H](O)[C@H](C)O2)C1)C(=O)c1c(OC)cccc1C3=O [AD198, N-benzyladriamycin-14-valerate]
  tBid-binding capacity of mitochondria: significantly higher tBid-binding capacity
